Patent US20250289785A1, “INDOLE DERIVATIVE, METHOD FOR PREPARING SAME, AND USE THEREOF” (MITOIMMUNE THERAPEUTICS INC., priority 2021, published 2025)
Where two headings read alike, the source gives them in different places. Values belong to the molecule of their own block, whether it stands above or below them.

Tests used:
NRK-49F cells = assay: Cell death protective effect in renal fibroblasts against Erastin, glutamate and RSL3 (LDH); format: cell-based, rat; conditions: 24 h
Protocol: In order to identify the protective effect on renal fibroblasts, NRK-49F cells were divided into 96-well plates by 1×10^4 and cultured for 18 to 24 hours. The compounds of Examples were diluted to final concentrations of 0.1 and 1. μM, treated in each well, and incubated for 15 to 20 minutes. Erastin, glutamate, and RSL3 were treated to have final concentrations of 3 μM, 75 mM, and 3 μM, respectively, and cultured for 24 hours. In order to identify the protective effect of each compound, the degree of LDH extracellular secretion was measured using cytotoxicity LDH assay kit [Dojindo; CK12]. Briefly, at the time when the treatment of the cells with Erastin, glutamate, and RSL3 for 24 hours is completed, the supernatants containing the cells are taken by 70 μL and transferred to a new 96-well plate. The assay buffer included in the kit is added in an amount of 70 μL/well (the same amount as the sample) thereto, and then the plate is wrapped with a foil and the reaction is performed at room temperature for 15 minutes.

MLE-12 cells = assay: Cell death protective effect in lung epithelial cells against RSL3 (LDH); format: cell-based, rat; conditions: MLE-12, RSL3, 1 μM, 24 h
Protocol: In order to identify the protective effect on lung epithelial cells, MLE-12 cells were divided into 96-well plates by 5×10^3 and cultured for 18 to 24 hours. The compounds of Examples were diluted to final concentrations of 0.03 and 0. μM, treated in each well, and incubated for 20 minutes. RSL3 was treated to have final concentrations of 1. μM, respectively, and cultured for 24 hours. In order to identify the protective effect of each compound, the degree of LDH extracellular secretion was measured using cytotoxicity LDH assay kit [Dojindo; CK12]. Briefly, at the time when the treatment of the cells with RSL3 for 24 hours is completed, the supernatants containing the cells are taken by 70 μL and transferred to a new 96-well plate. The assay buffer included in the kit is added in an amount of 70 μL/well (the same amount as the sample) thereto, and then the plate is wrapped with a foil and the reaction is performed at room temperature for 15 minutes.

H9C2 cells = assay: Maintenance of intracellular calcium level in heart cells treated with t-BHP (FLIPR Calcium 6); format: cell-based, rat; conditions: H9C2, t-BHP 150 μM
Protocol: To examine the maintenance effect on calcium level in heart cells, H9C2 cells were divided into a 96-well plate by 1.5×10^4 cells/well and cultured for 24 hours. To measure intracellular calcium level, a FLIPR Calcium 6 assay kit (Molecular devices; #R8190) was used. Following the experimental method provided by the manufacturer, cells were treated with probenecid and calcium-sensitive dye for 1.75 hours, and then the cells were treated with the compound of Example 2 for 0.25 hours (the final concentration of the compound was 0.02 or 0.01 μM). And the cells were treated with t-BHP to a final concentration of 150 μM, then intracellular calcium level was measured every 30 seconds in real time.
FIG. 1 is a graph regarding the regulatory effect of the compound of Example 2 on calcium level under t-BHP treatment. The ΔF/F(Max−Min) value on the vertical axis is the difference between the maximum and minimum fluorescence intensity values of the calcium-sensitive dye after treatment with t-BHP (150 μM), and this value increases as intracellular calcium level increases.

[1] = Plasma and brain concentration after oral administration to ICR mice (HPLC-MS/MS); format: in vivo; conditions: 10 mg/kg; for concentration at 2 h / concentration at 24 h / AUC(0-t): ICR, mouse, po
Protocol: […] parameters can be represented as maximum concentration in plasma (Cmax), time taken until maximum concentration in plasma (Tmax), area under the plasma concentration-time curve (AUClast and AUCinf), and half-life (t1/2), and the like.
The compound of example 2 was orally administered to ICR mice at a dose of 10 mg/kg, and drug concentration in mouse plasma was measured using HPLC-MS/MS spectroscopy at 0.5, 1, 2, 4, 8 and 24 hours. The mouse brains were removed at 2 or 24 hours, and drug concentration in the brain was measured using HPLC-MS/MS spectroscopy. The area under the plasma concentration v. time curve (AUCinf) was measured to be […], and at 2 hours after administration drug concentration in plasma was 546 ng/mL and brain drug concentration was measured at 1043 ng/mL. […] Further, at 24 hours after administration, for Embodiment 2, drug concentration in plasma was measured to be 4.7 ng/mL and drug concentration in the brain was measured at 5.7 ng/mL. With the brain-plasma drug concentration ratio at 1.23, drug exposure in the brain was still high.
The Comparative Example compound was orally administered to ICR mice at a dose of 10 mg/kg, and drug concentration in mouse plasma was measured using HPLC-MS/MS spectroscopy at 0.5, 1, 2, 4, 8 and 24 hours. The mouse brains were removed at 2 or 24 hours, and drug concentration in the brain was measured using HPLC-MS/MS spectroscopy.

[2] = Glutamate, 75 mM, compound 0.1 μM
[3] = Glutamate, 75 mM, compound 1.0 μM
[4] = ICR mouse, 2 hours after administration

Structure (SMILES): COCc1cc(NC2CCOCC2)c2[nH]c(-c3ccccc3)cc2c1 [Example 1, 5-(methoxymethyl)-2-phenyl-N-tetrahydropyran-4-yl-1H-indol-7-amine]
inhibition (%) (NRK-49F cells; Erastin, 3 μM, compound 0.1 μM): 96%
inhibition (%) (NRK-49F cells; Erastin, 3 μM, compound 1.0 μM): 95%
inhibition (%) (NRK-49F cells; [2]): 100%
inhibition (%) (NRK-49F cells; [3]): 100%
inhibition (%) (NRK-49F cells; RSL3, 3 μM, compound 0.1 μM): 98%
inhibition (%) (NRK-49F cells; RSL3, 3 μM, compound 1.0 μM): 98%
inhibition (%) (MLE-12 cells; compound 0.03 μM): 88%
inhibition (%) (MLE-12 cells; compound 0.3 μM): 100%

brain drug concentration [1, 4]: 1043.2 ng/mL
drug concentration in plasma [1, 4]: 546.1 ng/mL
AUClast, Brain ([1]; ICR mouse, from the 2 and 24 hr samples): 12581.1 ng·h/g
AUC(0-inf) ([1]; ICR mouse, plasma, read-out: area under the plasma concentration v. time curve (AUCinf)): 4960 ng·h/mL
concentration at 2 h ([1]; brain, 2 hours after administration, read-out: brain drug concentration): 1040 ng/mL
concentration at 24 h ([1]; brain, 24 hours after administration, read-out: drug concentration in the brain): 5.7 ng/mL
concentration at 2 h ([1]; plasma, 2 hours after administration, read-out: drug concentration in plasma): 546 ng/mL
concentration at 24 h ([1]; plasma, 24 hours after administration, read-out: drug concentration in plasma): 4.7 ng/mL
AUC(0-t) ([1]; plasma, from the 2 and 24 hr samples, read-out: AUClast, Plasma): 6600 ng·h/mL
AUC(0-t) ([1]; plasma, plasma, read-out: 0.5~24 hr AUClast): 4940 ng·h/mL
AUC(0-t) ([1]; plasma, plasma, read-out: area under the plasma concentration v. time curve (AUClast)): 4940 ng·h/mL
Kp at 2 h ([1]; brain/plasma, ICR mouse, 2 hours after administration, read-out: brain-plasma drug concentration ratio (B/P ratio)): 1.91
Kp at 24 h ([1]; brain/plasma, ICR mouse, 24 hours after administration, read-out: brain-plasma drug concentration ratio (B/P ratio)): 1.23
Kp ([1]; brain/plasma, ICR mouse, read-out: AUClast B/P ratio): 1.9
Structure (SMILES): COCc1cc(NC2CCCC2)c2[nH]c(-c3ccccc3)cc2c1 [Example 2, N-cyclopentyl-5-(methoxymethyl)-2-phenyl-1H-indol-7-amine]
intracellular calcium level, ΔF/F(Max−Min) (H9C2 cells; compound 0.01 μM): significantly decreased
intracellular calcium level, ΔF/F(Max−Min) (H9C2 cells; compound 0.02 μM): within normal range
inhibition (%) (NRK-49F cells; Erastin, 3 μM, compound 0.1 μM): 97%
inhibition (%) (NRK-49F cells; Erastin, 3 μM, compound 1.0 μM): 94%
inhibition (%) (NRK-49F cells; [2]): 100%
inhibition (%) (NRK-49F cells; [3]): 100%
inhibition (%) (NRK-49F cells; RSL3, 3 μM, compound 0.1 μM): 98%
inhibition (%) (NRK-49F cells; RSL3, 3 μM, compound 1.0 μM): 97%
inhibition (%) (MLE-12 cells; compound 0.03 μM): 84%
inhibition (%) (MLE-12 cells; compound 0.3 μM): 9%

Structure (SMILES): COCc1cc(NC2CC[S+]([O-])CC2)c2[nH]c(-c3ccccc3)cc2c1 (centres unmarked) [Example 14, 5-(methoxymethyl)-N-(1-oxothian-4-yl)-2-phenyl-1H-indol-7-amine]
inhibition (%) (NRK-49F cells; Erastin, 3 μM, compound 0.1 μM): 96%
inhibition (%) (NRK-49F cells; Erastin, 3 μM, compound 1.0 μM): 93%
inhibition (%) (NRK-49F cells; [2]): 100%
inhibition (%) (NRK-49F cells; [3]): 100%
inhibition (%) (NRK-49F cells; RSL3, 3 μM, compound 0.1 μM): 97%
inhibition (%) (NRK-49F cells; RSL3, 3 μM, compound 1.0 μM): 97%
inhibition (%) (MLE-12 cells; compound 0.03 μM): 50%
inhibition (%) (MLE-12 cells; compound 0.3 μM): 100%

Structure (SMILES): CCOCc1cc(NC2CCCC2)c2[nH]c(-c3ccccc3)cc2c1 [Example 19, N-cyclopentyl-5-(ethoxymethyl)-2-phenyl-1H-indol-7-amine]
inhibition (%) (NRK-49F cells; Erastin, 3 μM, compound 0.1 μM): 96%
inhibition (%) (NRK-49F cells; Erastin, 3 μM, compound 1.0 μM): 95%
inhibition (%) (NRK-49F cells; [2]): 100%
inhibition (%) (NRK-49F cells; [3]): 100%
inhibition (%) (NRK-49F cells; RSL3, 3 μM, compound 0.1 μM): 97%
inhibition (%) (NRK-49F cells; RSL3, 3 μM, compound 1.0 μM): 96%
inhibition (%) (MLE-12 cells; compound 0.03 μM): 93%
inhibition (%) (MLE-12 cells; compound 0.3 μM): 100%

Structure (SMILES): CCOCc1cc(NC2CCOCC2)c2c(c1)c(COC)c(-c1ccccc1)n2C [Example 29, 5-(ethoxymethyl)-3-(methoxymethyl)-1-methyl-2-phenyl-N-(tetrahydro-2H-pyran-4-yl)-1H-indol-7-amine]
inhibition (%) (NRK-49F cells; Erastin, 3 μM, compound 0.1 μM): 3%
inhibition (%) (NRK-49F cells; Erastin, 3 μM, compound 1.0 μM): 93%
inhibition (%) (NRK-49F cells; [2]): 17%
inhibition (%) (NRK-49F cells; [3]): 100%
inhibition (%) (NRK-49F cells; RSL3, 3 μM, compound 0.1 μM): 0%
inhibition (%) (NRK-49F cells; RSL3, 3 μM, compound 1.0 μM): 96%
inhibition (%) (MLE-12 cells; compound 0.03 μM): 0%
inhibition (%) (MLE-12 cells; compound 0.3 μM): 95%

Structure (SMILES): COCCc1cc(NC2CCOCC2)c2[nH]c(-c3ccccc3)cc2c1 [Example 41, 5-(2-methoxyethyl)-2-phenyl-N-(tetrahydro-2H-pyran-4-yl)-1H-indol-7-amine]
inhibition (%) (NRK-49F cells; Erastin, 3 μM, compound 0.1 μM): 96%
inhibition (%) (NRK-49F cells; Erastin, 3 μM, compound 1.0 μM): 94%
inhibition (%) (NRK-49F cells; [2]): 100%
inhibition (%) (NRK-49F cells; [3]): 100%
inhibition (%) (NRK-49F cells; RSL3, 3 μM, compound 0.1 μM): 97%
inhibition (%) (NRK-49F cells; RSL3, 3 μM, compound 1.0 μM): 97%
inhibition (%) (MLE-12 cells; compound 0.03 μM): 95%
inhibition (%) (MLE-12 cells; compound 0.3 μM): 97%

Structure (SMILES): CCOCc1cc(NC2CCOCC2)c2[nH]c(-c3ccccc3)c(-c3ncc[nH]3)c2c1 [Example 46, 5-(ethoxymethyl)-3-(1H-imidazol-2-yl)-2-phenyl-N-(tetrahydro-2H-pyran-4-yl)-1H-indole-7-amine]
inhibition (%) (NRK-49F cells; Erastin, 3 μM, compound 0.1 μM): 5%
inhibition (%) (NRK-49F cells; Erastin, 3 μM, compound 1.0 μM): 64%
inhibition (%) (NRK-49F cells; [2]): 13%
inhibition (%) (NRK-49F cells; [3]): 16%
inhibition (%) (NRK-49F cells; RSL3, 3 μM, compound 0.1 μM): 0%
inhibition (%) (NRK-49F cells; RSL3, 3 μM, compound 1.0 μM): 5%
inhibition (%) (MLE-12 cells; compound 0.03 μM): 0%
inhibition (%) (MLE-12 cells; compound 0.3 μM): 7%

Structure (SMILES): CCOC(=O)c1ccc(NC2CCCCC2)c(N)c1 [Ferrostatin-1, reference compound]
inhibition (%) (NRK-49F cells; Erastin, 3 μM, compound 0.1 μM): 98%
inhibition (%) (NRK-49F cells; Erastin, 3 μM, compound 1.0 μM): 97%
inhibition (%) (NRK-49F cells; [2]): 90%
inhibition (%) (NRK-49F cells; [3]): 100%
inhibition (%) (NRK-49F cells; RSL3, 3 μM, compound 0.1 μM): 97%
inhibition (%) (NRK-49F cells; RSL3, 3 μM, compound 1.0 μM): 97%
inhibition (%) (MLE-12 cells; compound 0.03 μM): 25%
inhibition (%) (MLE-12 cells; compound 0.3 μM): 98%
